In patent US7173021B2, “Synthesis of temozolomide esters as potent anticancer pro-drugs for topical and transdermal applications in treatments of cancers” (Tianjin North Pharm Sci-Tech Co., Ltd., priority 2004, dated 2007):
In brackets after ≈: the same amount, converted by molar mass.

Columns and labels:
MCF-7 (human breast) = experiment: In vitro tumour cell growth inhibition (MTT), MCF-7; format: cell-based; conditions: MCF7, Table 1 experiment, 96 h
Method: (§1) Temozolomide (white powder), temozolomide acid (white powder) and temozolomide-8-carboxylate hexyl (white scale crystal) were made in house. For the estimation of in vitro tumour cell growth inhibition, MV3 (human melanoma), M14 (human melanoma), B16 and B16-BL6 (mouse melanoma), SHG-44, TJ899 and TJ905 (human glioma), MCF-7 (human breast), HCT-8 (human colon), A549 (human non small lung), Bel7402 (human hepatocellulor), and BGC-823 (human stomach) were used. All tumour cells were cultured in RPMI-1640 medium supplemented with 10% fetal bovine serum (FBS) at 37° C. in a humidified 5% CO2 incubator.
(§2) After being harvested from culture flasks, a cell suspension of 1×10^4/ml was made by using 1640 RPMI medium supplemented with 10% fetal bovine serum. 100 μl (contains 1000 tumour cells) of the cell suspension was seeded per well of 96-well flat-bottom Costar culture plates at 37° C. in a humidified 5% CO2 incubator for 24 hrs before introducing drugs. Each tested compounds was made for five different concentrations and 100 μl of the each concentration was introduced into parallel three wells; control wells were added with 100 μl of plain medium alone; fluorouracil (a chemotherapeutic antitumour drug) was used as the positive control. Cells were then incubated for 96 h. Proliferative response and cell death were determined using MTT (3-(4,5-dimethylthiazolyl)-2,5-diphenyl-tetrazolium bromide) assay.
(§3) MTT assay: Following incubation of cells with the tested compounds for 96 h, 100 μl of 0.4 mg/ml MTT in RPMI 1640 was added to each well and the plate was incubated at 37° C. for 4 h. The plate was then centrifuged and followed by removal of medium. 150 μl of DMSO was then added to dissolve formazan crystal. DMSO-added plates were placed on a plate shaker for 5 min and absorbance was measured spectrophotometrically at 540 nm (with reference wavelength at 450 nm) using a Benchmark microtiter plate reader (Bio-Rad 550, Bio-Rad Laboratories, CA, U.S.A.).
(§4) The IC50 was calculated from the curve of the tested compound concentrations against the inhibition rate of the tumour cells. […]

BGC-823 (human stomach) = experiment: In vitro tumour cell growth inhibition (MTT), BGC-823; format: cell-based; conditions: Table 1 experiment, 96 h
Method: as §1, §2, §3, §4

TJ899 (human glioma) = experiment: In vitro tumour cell growth inhibition (MTT), TJ899; format: cell-based; conditions: Homo sapiens, Table 2 experiment, 96 h
Method: as §1, §2, §3
The IC50 was calculated from the curve of the tested compound concentrations against the inhibition rate of the tumour cells. Table 1 summarized the experiment results by using six human cancer cell lines, HCT-8 (colon carcinoma), A549 (non small lung carcinoma), MCF-7 (breast), Bel7402 (hepatocellulor carcinoma), BGC-823 (stomach adenocarcinoma), and MV3 (melanoma). Table 2 summarized the results from the experiment results by using two human melanoma cell lines, MV3 and M14, two mouse melanoma cell lines, B16 and B16-BL6, and three human glioma cell lines, TJ899, SHG-44 and TJ905.

[1] = Solubility in 10% v/v propylene glycol; format: physicochemical; conditions: 10% v/v propylene glycol aqueous solution, aqueous with cosolvent or surfactant or cyclodextrin, thermodynamic from solid, ambient conditions, stirred 5 hours, read-out: Solubility, Concentration
Method: The potential of temozolomide esters used as topical and transdermal prodrugs is first proven through studies of their solubility. That is a decreased trend of solubility in an aqueous solution with increase of the length of the ester hydrocarbon alkyl chain of the temozolomide esters. It is clear the solubility constantly decreases from the methyl ester to the octyl ester, while temozolomide itself is 3.0 mg/ml similar to that of the methyl ester. […] Similarly to the esters, the solubility of the temozolomide amide products in the aqueous solution is considerably lower than that of temozolomide.
The solubility of temozolomide and the temozolomide esters was determined in 10% v/v propylene glycol by stirring an excess of the solid products at room temperature for 5 hours. The mixtures were then filtered, diluted with sample solvent and analysed using HPLC.

[2] = In vitro permeation and metabolism, Franz diffusion cell, human skin; format: in vitro ADME
Description: Jacketed Franz-type diffusion cells were used throughout the study and the barrier (12) (skin or silicone membrane) was mounted between the two chambers (14, 16) (2.8–3.4 cm^2 available surface area) with the dermal side in contact with the receiver solution (FIG. 2). The diffusion chambers (10) comprised a barrier of skin or silicone membrane (12) mounted between two chambers (14, 16). A cap (18) formed the donor compartment (14). The second receptor compartment (16) contained a receptor cell (20) with a stirring bar (22), sampling port (24) and cover (26). The stirring bar (22) was stirred by means of a magnet plate (28) having a rotating magnet. The receptor compartment comprised a water jacket (30) having a water inlet (32) and a water outlet (34).
Three types of materials were used in permeation studies. • 1. Silicone membrane (Silastic Medical Grade, 500-5, Dow Corning 0.005 in thick) was cut into circular sections (2 cm diameter) and washed with double distilled water prior to use. • 2. Full-thickness rat skin was obtained from Male Wistar rats aged 10 to 12 weeks and weighing 250 to 300 g, which were sacrificed by cervical dislocation, the abdomen shaved and the intact skin removed by dissection. Following removal of fat tissue, the skin was cut into circular pieces and used immediately. • 3. Samples of adult human epidermis were purchased from the Stephen Kirby Skin Bank (UK). The samples were from the leg, were stored at −18° C. and used within one week. Experiments
The membrane (as detailed above) was mounted on the diffusion cell (10), on which the surface area available for diffusion of each cell was about 2.8–3.4 cm^2. The cell cap (18) was placed on the membrane (12), and it was sealed with Parafilm® connecting the cell cap, membrane, and receptor cell. […] The concentration of each sample solution was determined by using HPLC. […]
As stated above, after the removal of receptor solution, the receiver compartment was refilled with an identical volume of receptor fluid. […] As a consequence, it was necessary to mathematically correct each successive sample concentrations, in the present invention, which was determined by applying the following equation:
[formula] where Ct is the actual current concentration of drug in the receptor phase at time t, Cmt is the apparent (i.e. measured) current concentration of drug in the receptor phase, Vs is the sample volume withdrawn for analysis, Vr is the volume of receptor solution, and ΣCm is the summed total of the previous measured concentrations.
Finally, the amount of drug penetrating the skin per unit area was calculated by dividing the obtained concentrations by the surface area available for diffusion cell and this value was different for each individual cell. […]

`CCCCCCOC(=O)c1ncn2c(=O)n(C)nnc12` [temozolomide hexyl ester, Hexyl 3,4-dihydro-3-methyl-4-oxoimidazo[5,1-d]-1,2,3,5-tetrazine-8-carboxylate] showed an IC50 (MCF-7 (human breast)) of 20 µg/mL (≈ 71.6 µM), an IC50 (BGC-823 (human stomach)) greater than 19.5 µg/mL and an IC50 (TJ899 (human glioma)) greater than 100 µg/mL. The solubility at 5 h [1] was 400 µg/mL (≈ 1430 µM), the “Permeation through human skin” value ([2]; 37° C., FIG. 9) was “notably better than temozolomide” and the “Metabolism within human skin to temozolomide acid” value ([2]; human skin) was “completely metabolized into the temozolomide acid”.
